Experiment in all cases: In vitro SBL inhibition assay (nitrocefin hydrolysis), IC50
One test deals with OXA-58 (Acinetobacter baumannii, UniProt Q2TR58). Format: biochemical, A. baumannii. On the procedure: (§1) Nitrocefin (Sigma-Aldrich, St Louis, MO, USA), a chromogenic cephalosporin antibiotic (λ, 482 nm; εM, 15,000 M^−1.cm^−1), was used as a reporter substrate at 100 µM for KPC-2, OXA-23, and OXA-48, at 200 µM for OXA-24 and OXA-51, and at 50 µM for OXA-58. Enzymes were preincubated in the presence of varying concentrations of each compound (0.006 to 3000 nM, diluted twofold in dimethyl sulfoxide (DMSO) for KPC-2, OXA-23, and OXA-48 assays and 0.51 to 10,000 nM diluted threefold in DMSO for OXA-24, OXA-51, and OXA-58) for 10 min at 30°C. Nitrocefin was then added and its hydrolysis by the uninhibited enzyme fraction was followed at an absorbance wavelength of 482 nm for 10 min at 30°C using Envision UV fluorescence plate reader (Perkin Elmer, Waltham, MA, USA). Hydrolysis rate data were used to determine inhibitory activities, expressed in IC50 values [corresponding to the compound concentration (µM) required to inhibit 50% of enzymatic reaction].

For a further test, the target named is OXA-51 (Acinetobacter baumannii, UniProt Q5QT35). The format is biochemical, A. baumannii. Conditions: 10 min preincubation, 30°C, read-out: Enzyme IC50. On the procedure: as §1
For the next test, the target named is OXA-48 (Klebsiella pneumoniae, UniProt Q6XEC0). The format is biochemical. The settings on record: 10 min preincubation, 30°C, read-out: Enzyme IC50. On the procedure:
as §1

A further test addresses OXA-23 (Acinetobacter baumannii, UniProt Q9L4P2). Format: biochemical. The settings on record: 10 min preincubation, 30°C, read-out: Enzyme IC50. On the procedure:
as §1

The target in another test is OXA-24/40 (Acinetobacter baumannii, UniProt Q8RLA6). Format: biochemical. The settings on record: 10 min preincubation, 30°C, read-out: Enzyme IC50. On the procedure:
as §1

A further test addresses KPC-2 (Klebsiella pneumoniae, UniProt Q9F663). The format is biochemical. On the procedure:
as §1

As usually defined, the IC50 is the point on the concentration scale where inhibition reaches its midpoint.

SMILES strings stand for the structures. Where two headings read alike, the source gives them in different places.

OXA-58, sequence (Q2TR58 19-280): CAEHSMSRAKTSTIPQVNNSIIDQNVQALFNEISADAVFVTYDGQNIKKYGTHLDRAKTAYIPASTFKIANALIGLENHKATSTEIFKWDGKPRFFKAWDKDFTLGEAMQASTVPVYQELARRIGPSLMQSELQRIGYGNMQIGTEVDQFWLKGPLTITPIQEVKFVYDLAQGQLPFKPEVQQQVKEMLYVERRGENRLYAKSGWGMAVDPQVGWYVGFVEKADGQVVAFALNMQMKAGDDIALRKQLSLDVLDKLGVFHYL
KPC-2, sequence (Q9F663 25-293 limits assumed): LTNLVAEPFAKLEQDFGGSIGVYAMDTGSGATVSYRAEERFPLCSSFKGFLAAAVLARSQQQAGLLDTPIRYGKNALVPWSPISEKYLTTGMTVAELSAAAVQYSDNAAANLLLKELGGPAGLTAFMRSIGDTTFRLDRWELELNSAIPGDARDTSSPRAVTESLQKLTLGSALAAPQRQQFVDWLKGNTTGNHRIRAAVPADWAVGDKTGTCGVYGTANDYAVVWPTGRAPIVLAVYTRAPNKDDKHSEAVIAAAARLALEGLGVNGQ
OXA-51, sequence (Q5QT35 entry or part of it): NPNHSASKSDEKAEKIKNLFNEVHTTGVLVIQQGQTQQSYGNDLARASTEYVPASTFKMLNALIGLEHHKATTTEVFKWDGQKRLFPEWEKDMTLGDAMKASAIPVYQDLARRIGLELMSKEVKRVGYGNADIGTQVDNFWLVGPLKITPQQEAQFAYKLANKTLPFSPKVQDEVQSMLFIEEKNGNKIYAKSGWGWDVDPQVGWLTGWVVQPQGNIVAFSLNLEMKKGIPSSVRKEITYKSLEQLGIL
OXA-24/40, sequence (Q8RLA6 22-275): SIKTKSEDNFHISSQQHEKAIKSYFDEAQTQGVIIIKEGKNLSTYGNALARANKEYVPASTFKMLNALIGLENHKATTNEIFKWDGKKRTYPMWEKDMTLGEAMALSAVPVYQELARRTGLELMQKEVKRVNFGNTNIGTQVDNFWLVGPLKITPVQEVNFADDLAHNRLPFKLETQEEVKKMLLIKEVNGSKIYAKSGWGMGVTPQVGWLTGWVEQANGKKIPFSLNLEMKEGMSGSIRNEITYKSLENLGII
OXA-23, sequence (Q9L4P2 18-273): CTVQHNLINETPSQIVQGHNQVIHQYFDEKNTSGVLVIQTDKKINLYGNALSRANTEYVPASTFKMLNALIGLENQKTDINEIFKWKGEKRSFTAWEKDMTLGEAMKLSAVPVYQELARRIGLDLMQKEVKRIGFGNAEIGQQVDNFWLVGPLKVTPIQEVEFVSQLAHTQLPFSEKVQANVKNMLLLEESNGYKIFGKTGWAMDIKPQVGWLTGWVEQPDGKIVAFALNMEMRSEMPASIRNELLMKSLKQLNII
OXA-48, sequence (Q6XEC0 23-265, looked up, species assumed): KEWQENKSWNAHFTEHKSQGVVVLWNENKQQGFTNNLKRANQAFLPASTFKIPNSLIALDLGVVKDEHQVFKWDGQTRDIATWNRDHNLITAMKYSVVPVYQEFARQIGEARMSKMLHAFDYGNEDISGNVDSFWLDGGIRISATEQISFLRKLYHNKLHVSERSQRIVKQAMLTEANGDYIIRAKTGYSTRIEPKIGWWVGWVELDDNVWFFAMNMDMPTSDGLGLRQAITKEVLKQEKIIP

Consider `NCCONC(=O)[C@@H]1CC[C@@H]2CN1C(=O)N2OS(=O)(=O)O` [Nac, nacubactam], for which the half-inhibitory concentration (IC50) against OXA-58 was > 10 µM; at OXA-51 it was > 10 µM; at OXA-48, > 3 µM; on OXA-23 it was > 3 µM; on OXA-24/40, > 10 µM; at KPC-2, 0.0272 µM.
Regarding `O=C(O)C[C@@H]1CC[C@H](NC(=O)Cc2cccs2)B(O)O1` [Vab, vaborbactam], the half-inhibitory concentration (IC50) against OXA-58 was > 10 µM; at OXA-48, > 3 µM; on OXA-23, > 3 µM; on KPC-2 (KPC-2, 10 min preincubation, 30°C, read-out: Enzyme IC50) it was 0.102 µM.
For `O=C(NNC(=O)[C@@H]1CC[C@@H]2CN1C(=O)N2OS(=O)(=O)O)[C@@H]1CCCNC1` [Zid, zidebactam], the half-inhibitory concentration (IC50) is > 10 µM against OXA-58; > 10 µM at OXA-51; > 3 µM on OXA-23; > 10 µM at OXA-24/40; 0.0389 µM against KPC-2.
With `O=C(NC1CCNCC1)[C@@H]1CC[C@@H]2CN1C(=O)N2OS(=O)(=O)O` (relative stereo) [Rel, relebactam], the IC50 against OXA-58 is > 10 µM; on OXA-51, > 10 µM; at OXA-23, > 3 µM; at OXA-24/40, > 10 µM.

Source of the values: PMC10916402, “Meropenem-ANT3310, a unique β-lactam-β-lactamase inhibitor combination with expanded antibacterial spectrum against Gram-negative pathogens including carbapenem-resistant Acinetobacter baumannii” (Antimicrobial Agents and Chemotherapy, 2024).
